Experimental data reported in ChEMBL document CHEMBL1155072, “Urotensin-II receptor antagonists: synthesis and SAR of N-cyclic azaalkyl benzamides” (Bioorg Med Chem Lett, 2008).

Assays:
Urotensin-2 receptor [1] = molecular target: T1, Urotensin-2 receptor (Homo sapiens, UniProt Q9UKP6); assay: Displacement of [I125]hU2 from human recombinant urotensin 2 receptor expressed in HEK293 cells; format: cell-based
T1 sequence (Q9UKP6 whole entry): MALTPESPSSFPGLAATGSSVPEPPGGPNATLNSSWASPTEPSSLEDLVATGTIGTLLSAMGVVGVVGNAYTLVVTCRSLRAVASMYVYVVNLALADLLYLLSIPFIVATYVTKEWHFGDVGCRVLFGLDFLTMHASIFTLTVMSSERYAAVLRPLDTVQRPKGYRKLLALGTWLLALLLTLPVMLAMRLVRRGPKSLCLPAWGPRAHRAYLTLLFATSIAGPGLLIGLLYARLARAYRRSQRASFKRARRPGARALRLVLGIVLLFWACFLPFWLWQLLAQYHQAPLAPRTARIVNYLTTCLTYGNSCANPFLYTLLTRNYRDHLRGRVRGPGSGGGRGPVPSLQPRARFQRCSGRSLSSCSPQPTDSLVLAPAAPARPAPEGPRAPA

Urotensin-2 receptor [2] = molecular target: T1, Urotensin-2 receptor; assay: Antagonist activity at human recombinant urotensin 2 receptor expressed in HEK293 cells assessed as inhibition of urotensin 2-induced calcium mobilization by FLIPR assay; format: functional, cell-based
[3] = molecular target: T2, 5-hydroxytryptamine receptor 1F (Homo sapiens, UniProt P30939); assay: Binding affinity to 5HT1F receptor
T2 sequence (P30939 whole entry): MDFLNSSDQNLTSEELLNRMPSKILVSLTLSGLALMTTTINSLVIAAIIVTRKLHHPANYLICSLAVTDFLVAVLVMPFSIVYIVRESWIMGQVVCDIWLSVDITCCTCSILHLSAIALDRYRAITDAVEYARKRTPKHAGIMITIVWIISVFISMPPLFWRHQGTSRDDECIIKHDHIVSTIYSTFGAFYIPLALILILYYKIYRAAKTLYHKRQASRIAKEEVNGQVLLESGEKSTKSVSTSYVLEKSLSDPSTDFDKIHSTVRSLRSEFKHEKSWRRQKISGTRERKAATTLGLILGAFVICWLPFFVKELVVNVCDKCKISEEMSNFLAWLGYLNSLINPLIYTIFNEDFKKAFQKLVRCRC

[4] = molecular target: T3, 5-hydroxytryptamine receptor 1A (Homo sapiens, UniProt P08908); assay: Binding affinity to 5HT1A receptor
T3 sequence (P08908 whole entry): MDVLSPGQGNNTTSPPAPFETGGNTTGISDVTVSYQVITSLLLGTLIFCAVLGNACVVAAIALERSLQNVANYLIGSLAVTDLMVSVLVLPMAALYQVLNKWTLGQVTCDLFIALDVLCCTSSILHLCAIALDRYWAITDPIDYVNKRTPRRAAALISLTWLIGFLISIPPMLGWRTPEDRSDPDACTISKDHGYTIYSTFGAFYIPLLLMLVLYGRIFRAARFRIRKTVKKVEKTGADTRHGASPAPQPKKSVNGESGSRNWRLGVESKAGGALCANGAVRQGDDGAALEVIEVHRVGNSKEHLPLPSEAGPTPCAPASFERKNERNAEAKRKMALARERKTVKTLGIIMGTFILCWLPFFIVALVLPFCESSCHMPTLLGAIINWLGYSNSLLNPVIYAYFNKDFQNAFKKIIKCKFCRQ

[5] = molecular target: 5-hydroxytryptamine receptor 2B (Homo sapiens, UniProt P41595); assay: Binding affinity at 5HT2B receptor
Chain of 5-hydroxytryptamine receptor 2B (P41595 whole entry): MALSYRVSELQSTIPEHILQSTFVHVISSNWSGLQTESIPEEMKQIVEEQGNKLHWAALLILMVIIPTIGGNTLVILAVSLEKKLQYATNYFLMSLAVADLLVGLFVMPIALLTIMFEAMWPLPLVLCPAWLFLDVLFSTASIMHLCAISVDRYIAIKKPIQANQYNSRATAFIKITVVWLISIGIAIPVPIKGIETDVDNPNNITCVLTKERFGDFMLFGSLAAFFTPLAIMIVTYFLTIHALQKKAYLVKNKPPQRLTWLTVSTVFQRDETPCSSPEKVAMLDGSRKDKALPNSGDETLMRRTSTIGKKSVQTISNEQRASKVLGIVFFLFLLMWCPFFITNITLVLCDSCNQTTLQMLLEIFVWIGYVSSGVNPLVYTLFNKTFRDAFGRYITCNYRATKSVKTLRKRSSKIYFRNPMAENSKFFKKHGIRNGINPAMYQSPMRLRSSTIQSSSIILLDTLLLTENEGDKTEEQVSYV

D(2) dopamine receptor = D(2) dopamine receptor (Homo sapiens, UniProt P14416); assay: Binding affinity to dopamine D2 receptor
Chain of D(2) dopamine receptor (P14416 whole entry): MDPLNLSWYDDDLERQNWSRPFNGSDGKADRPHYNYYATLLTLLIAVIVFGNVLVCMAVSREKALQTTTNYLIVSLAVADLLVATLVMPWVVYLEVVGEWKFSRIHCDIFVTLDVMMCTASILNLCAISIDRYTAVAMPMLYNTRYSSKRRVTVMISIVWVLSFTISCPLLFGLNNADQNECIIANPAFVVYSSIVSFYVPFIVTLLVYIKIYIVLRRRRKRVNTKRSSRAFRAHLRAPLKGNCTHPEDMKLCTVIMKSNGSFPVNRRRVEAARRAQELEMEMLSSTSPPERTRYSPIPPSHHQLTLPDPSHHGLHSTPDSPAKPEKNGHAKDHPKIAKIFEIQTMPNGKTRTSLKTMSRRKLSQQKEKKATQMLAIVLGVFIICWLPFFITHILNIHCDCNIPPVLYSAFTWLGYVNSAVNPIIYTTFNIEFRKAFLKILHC

[6] = molecular target: T4, 5-hydroxytryptamine receptor 2C (Homo sapiens, UniProt P28335); assay: Binding affinity at 5HT2C receptor
T4 sequence (P28335 whole entry): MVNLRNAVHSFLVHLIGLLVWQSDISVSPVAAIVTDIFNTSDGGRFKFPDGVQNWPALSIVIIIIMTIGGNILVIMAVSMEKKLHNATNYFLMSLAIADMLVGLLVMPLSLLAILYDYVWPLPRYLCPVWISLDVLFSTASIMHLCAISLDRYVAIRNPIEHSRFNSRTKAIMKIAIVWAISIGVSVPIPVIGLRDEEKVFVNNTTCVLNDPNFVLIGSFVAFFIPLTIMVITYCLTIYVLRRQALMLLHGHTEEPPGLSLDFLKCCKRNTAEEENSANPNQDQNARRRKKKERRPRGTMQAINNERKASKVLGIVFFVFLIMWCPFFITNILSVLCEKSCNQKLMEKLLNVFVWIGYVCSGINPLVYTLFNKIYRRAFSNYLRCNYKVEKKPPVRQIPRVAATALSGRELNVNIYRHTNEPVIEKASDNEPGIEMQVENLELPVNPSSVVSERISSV

[7] = molecular target: 5-hydroxytryptamine receptor 1E (Homo sapiens, UniProt P28566); assay: Binding affinity to 5HT1E receptor
Chain of 5-hydroxytryptamine receptor 1E (P28566 whole entry): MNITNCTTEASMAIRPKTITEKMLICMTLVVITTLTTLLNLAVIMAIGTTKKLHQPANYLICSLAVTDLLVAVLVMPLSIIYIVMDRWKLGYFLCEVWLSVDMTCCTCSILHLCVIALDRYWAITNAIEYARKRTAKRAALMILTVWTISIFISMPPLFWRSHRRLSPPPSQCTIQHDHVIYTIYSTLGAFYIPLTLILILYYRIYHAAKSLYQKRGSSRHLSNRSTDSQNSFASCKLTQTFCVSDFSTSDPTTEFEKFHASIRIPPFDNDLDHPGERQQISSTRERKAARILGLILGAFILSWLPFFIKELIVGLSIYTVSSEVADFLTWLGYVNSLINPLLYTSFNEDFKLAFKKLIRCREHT

[8] = molecular target: Beta-2 adrenergic receptor (Homo sapiens, UniProt P07550); assay: Binding affinity to beta 2 adrenergic receptor
Chain of Beta-2 adrenergic receptor (P07550 whole entry): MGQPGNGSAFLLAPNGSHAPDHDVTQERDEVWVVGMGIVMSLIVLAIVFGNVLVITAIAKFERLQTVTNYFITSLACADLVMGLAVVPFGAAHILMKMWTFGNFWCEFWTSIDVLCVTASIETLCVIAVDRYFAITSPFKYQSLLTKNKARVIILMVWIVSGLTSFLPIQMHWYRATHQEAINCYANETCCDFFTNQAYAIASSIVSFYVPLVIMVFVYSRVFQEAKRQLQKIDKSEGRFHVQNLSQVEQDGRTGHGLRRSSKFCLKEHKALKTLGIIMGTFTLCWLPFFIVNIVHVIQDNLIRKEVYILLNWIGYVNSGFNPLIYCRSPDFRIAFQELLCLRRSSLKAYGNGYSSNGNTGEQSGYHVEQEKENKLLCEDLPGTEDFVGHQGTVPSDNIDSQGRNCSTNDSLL

[9] = molecular target: 5-hydroxytryptamine receptor 6 (Homo sapiens, UniProt P50406); assay: Binding affinity to 5HT6 receptor
Chain of 5-hydroxytryptamine receptor 6 (P50406 whole entry): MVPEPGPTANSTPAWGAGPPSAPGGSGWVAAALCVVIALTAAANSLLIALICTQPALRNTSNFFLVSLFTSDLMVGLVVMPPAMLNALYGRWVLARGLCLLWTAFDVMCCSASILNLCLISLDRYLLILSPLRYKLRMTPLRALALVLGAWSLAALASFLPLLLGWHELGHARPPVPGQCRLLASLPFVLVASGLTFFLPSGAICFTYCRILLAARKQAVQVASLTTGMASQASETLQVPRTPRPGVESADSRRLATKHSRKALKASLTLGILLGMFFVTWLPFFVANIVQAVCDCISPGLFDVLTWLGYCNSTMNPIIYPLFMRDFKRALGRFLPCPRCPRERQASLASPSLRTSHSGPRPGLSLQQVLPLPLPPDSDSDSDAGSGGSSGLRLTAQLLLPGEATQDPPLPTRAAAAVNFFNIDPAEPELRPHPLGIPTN

[10] = molecular target: Cytochrome P450 3A4 (Homo sapiens) (UniProt P08684); assay: Inhibition of CYP3A4
Chain of Cytochrome P450 3A4 (Homo sapiens) (P08684 whole entry, looked up): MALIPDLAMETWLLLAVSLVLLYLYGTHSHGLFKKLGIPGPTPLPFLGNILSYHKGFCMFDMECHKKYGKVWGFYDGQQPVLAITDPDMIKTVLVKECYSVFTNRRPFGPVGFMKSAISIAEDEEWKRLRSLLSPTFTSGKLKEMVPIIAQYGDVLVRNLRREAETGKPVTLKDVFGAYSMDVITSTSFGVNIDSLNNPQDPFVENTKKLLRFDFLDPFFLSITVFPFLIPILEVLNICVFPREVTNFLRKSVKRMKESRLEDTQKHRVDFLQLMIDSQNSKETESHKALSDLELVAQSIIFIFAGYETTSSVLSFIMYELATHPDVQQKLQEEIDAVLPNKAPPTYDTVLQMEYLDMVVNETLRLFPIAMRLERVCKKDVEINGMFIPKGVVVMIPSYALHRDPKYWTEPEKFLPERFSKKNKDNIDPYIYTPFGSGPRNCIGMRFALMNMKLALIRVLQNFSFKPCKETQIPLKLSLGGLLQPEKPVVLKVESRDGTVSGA

Cytochrome P450 2D6 = Cytochrome P450 2D6 (Homo sapiens, UniProt P10635); assay: Inhibition of CYP2D6; format: ADME
Chain of Cytochrome P450 2D6 (P10635 whole entry): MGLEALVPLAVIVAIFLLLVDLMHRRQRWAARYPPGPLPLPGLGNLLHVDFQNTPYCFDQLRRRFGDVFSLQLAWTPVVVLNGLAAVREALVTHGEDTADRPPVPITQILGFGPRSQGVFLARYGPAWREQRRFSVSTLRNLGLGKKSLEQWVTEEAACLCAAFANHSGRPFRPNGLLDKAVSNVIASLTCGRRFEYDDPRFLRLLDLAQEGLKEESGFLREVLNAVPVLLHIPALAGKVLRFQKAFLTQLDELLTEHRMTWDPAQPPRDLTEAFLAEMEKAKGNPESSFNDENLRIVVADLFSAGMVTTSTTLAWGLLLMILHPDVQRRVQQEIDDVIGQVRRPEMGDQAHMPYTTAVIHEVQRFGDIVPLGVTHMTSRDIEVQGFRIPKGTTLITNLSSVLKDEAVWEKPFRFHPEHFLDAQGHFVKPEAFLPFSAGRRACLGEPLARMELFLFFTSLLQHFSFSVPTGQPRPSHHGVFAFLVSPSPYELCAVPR

[11] = molecular target: 5-hydroxytryptamine receptor 1D (Homo sapiens, UniProt P28221); assay: Binding affinity to 5HT1D receptor
Chain of 5-hydroxytryptamine receptor 1D (P28221 whole entry): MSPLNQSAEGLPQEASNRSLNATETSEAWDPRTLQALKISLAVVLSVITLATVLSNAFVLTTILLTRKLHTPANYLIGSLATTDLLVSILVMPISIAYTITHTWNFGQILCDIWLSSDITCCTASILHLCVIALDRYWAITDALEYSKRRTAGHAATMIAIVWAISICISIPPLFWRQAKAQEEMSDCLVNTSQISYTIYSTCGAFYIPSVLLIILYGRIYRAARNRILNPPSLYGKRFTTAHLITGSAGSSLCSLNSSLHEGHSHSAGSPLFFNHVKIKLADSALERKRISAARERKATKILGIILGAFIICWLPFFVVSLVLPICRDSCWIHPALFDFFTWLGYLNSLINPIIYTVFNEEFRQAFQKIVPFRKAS

Row | Compound | Ki (Urotensin-2 receptor [1]) [nM] | further results
1 | CC(C)C[C@H](NC(=O)c1cc2ccccc2s1)C(=O)N[C@H]1CCN(Cc2ccc(OCCCN(C)C)cc2)C1 | 110 | 
2 | CN(C)CCCOc1ccc(CN2CC[C@H](NC(=O)c3ccc(Br)cc3)C2)cc1 | 320 | 
3 | CN(C)CCCOc1ccc(CN2CC[C@H](NC(=O)c3ccc(Cl)c(Cl)c3)C2)cc1 |  | IC50 (Urotensin-2 receptor [2]): 170 nM
4 | CC(C)C[C@H](NC(=O)c1cc2ccccc2s1)C(=O)N[C@H]1CCN(Cc2ccc(OC3CCNCC3)c(Br)c2)C1 | 3 | 
5 | CN(C)CCCOc1cccc(CN2CC[C@H](NC(=O)c3ccc(Cl)c(Cl)c3)C2)c1 | > 3000 | 
6 | CN(C)CCCOc1ccccc1CN1CC[C@H](NC(=O)c2ccc(Cl)c(Cl)c2)C1 | > 10000 | 
7 | O=C(N[C@H]1CCN(Cc2ccc(OC3CCN(Cc4ccccc4)CC3)c(Br)c2)C1)c1ccc(Cl)c(Cl)c1 | 230 | 
8 | O=C(N[C@H]1CCN(CCc2ccc(OC3CCNCC3)c(Br)c2)C1)c1ccc(Cl)c(Cl)c1 | 10 | 
9 | O=C(N[C@H]1CCN(CCc2ccc(OC3CCNCC3)cc2)C1)c1ccc(Cl)c(Cl)c1 | 42 | 
10 | CN(C)CCCOc1ccc(CN2CC[C@@H](NC(=O)c3ccc(Br)cc3)C2)cc1 | 350 | 
11 | CN(C)CCCOc1ccc(CN2CC[C@H](NC(=O)c3ccc(Cl)c(Cl)c3)C2)cc1Br | 61 | 
12 | O=C(N[C@H]1CCN(Cc2ccc(OCCN3CCCC3)c(Br)c2)C1)c1ccc(Cl)c(Cl)c1 | 1000 | 
13 | CN(C)CCCOc1ccc(CN2CCC(NC(=O)c3ccc(Cl)c(Cl)c3)CC2)cc1 | 500 | 
14 | CN(C)CCCOc1ccc(CN(C)CCCNC(=O)c2ccc(Cl)c(Cl)c2)cc1 | > 10000 | 
15 | O=C(N[C@H]1CCN(CCc2ccc(OC3CCNCC3)c(F)c2)C1)c1ccc(Cl)c(Cl)c1 | 62 | 
16 | O=C(N[C@@H]1CCN(S(=O)(=O)c2ccc(OC3CCNCC3)c(Br)c2)C1)c1ccc(Cl)c(Cl)c1 | 380 | 
17 | O=C(N[C@H]1CCN(CCc2ccc(OC3CCNCC3)c([N+](=O)[O-])c2)C1)c1ccc(Cl)c(Cl)c1 | 69 | 

Row | Compound | Ki (Urotensin-2 receptor [1]) [nM] | further results
18 | O=C(N[C@H]1CCN(Cc2ccc(OCCN3CCOCC3)c(Br)c2)C1)c1ccc(Cl)c(Cl)c1 | 3500 | 
19 | O=C(N[C@H]1CCN(Cc2ccc(OCCN3CCNCC3)c(Br)c2)C1)c1ccc(Cl)c(Cl)c1 | 1500 | 
20 | O=C(N[C@H]1CCN(Cc2ccc(O[C@@H]3CCNC3)c(Br)c2)C1)c1ccc(Cl)c(Cl)c1 | 5.5 | 
21 | O=C(NC1CCN(S(=O)(=O)c2ccc(OC3CCNCC3)c(Br)c2)CC1)c1ccc(Cl)c(Cl)c1 | 140 | 
22 | O=C(N[C@H]1CCN(Cc2ccc(OC3CCNCC3)c(Br)c2)C1)c1ccc(Cl)c(Cl)c1 | 4 | Ki [3]: 7200 nM; Ki [4]: 38 nM; Ki [5]: 140 nM; Ki (D(2) dopamine receptor): 100 nM; Ki [6]: 85 nM; Ki [7]: > 10000 nM; Ki [8]: > 10000 nM; Ki [9]: 4100 nM; IC50 (Urotensin-2 receptor [2]): 4 nM; IC50 [10]: 1900 nM; IC50 (Cytochrome P450 2D6): 2200 nM; Ki [11]: 140 nM
23 | CC(C)C[C@H](NC(=O)c1cc2ccccc2s1)C(=O)N[C@H]1CCN(S(=O)(=O)c2ccc(OC3CCNCC3)c(Br)c2)C1 | 12 | 
24 | O=C(N[C@H]1CCN(Cc2ccc(O[C@H]3CCNC3)c(Br)c2)C1)c1ccc(Cl)c(Cl)c1 | 44 | 
25 | CC(C)C[C@H](NC(=O)c1cc2ccccc2s1)C(=O)N[C@H]1CCN(CCc2ccc(O[C@@H]3CCNC3)c(Br)c2)C1 | 18 | 
26 | O=C(N[C@H]1CCN(S(=O)(=O)c2ccc(OC3CCNCC3)c(Br)c2)C1)c1ccc(Cl)c(Cl)c1 | 120 | 
27 | CN(C)CCCOc1ccc(CN2CCN(C(=O)c3ccc(Cl)c(Cl)c3)CC2)cc1 | > 10000 | 
28 | COc1cc(CCN2CC[C@H](NC(=O)c3ccc(Cl)c(Cl)c3)C2)ccc1OC1CCNCC1 | 36 | 
29 | O=C(N[C@H]1CCN(CCc2ccc(OC3CCNCC3)c(Cl)c2)C1)c1ccc(Cl)c(Cl)c1 | 15 | 
30 | CN1CCC(Oc2ccc(CN3CC[C@H](NC(=O)c4ccc(Cl)c(Cl)c4)C3)cc2Cl)C1 (mixture of isomers) | 47 | 
31 | Cc1cc(CN2CC[C@H](NC(=O)c3ccc(Cl)c(Cl)c3)C2)ccc1OC1CCN(C)C1 (mixture of isomers) | 108 | 
32 | CN1CCC(Oc2ccc(CN3CCC(NC(=O)c4ccc(Cl)c(Cl)c4)C3)cc2Br)C1 (racemic) | 41 | 
33 | CN1CCC(Oc2ccc(CN3CCC(NC(=O)c4ccc(Cl)c(Cl)c4)C3)cc2)C1 (racemic) | 97 | 
34 | O=C(NC1CCCCN(S(=O)(=O)c2ccc(OC3CCNCC3)c(Br)c2)C1)c1ccc(Cl)c(Cl)c1 (racemic) | 71 | 
